# Measurements taken from publication PMC3388080 (PLoS ONE, 2012).
# System: male Sprague-Dawley rats
# Assay: EEG/EMG/Tcore/LMA telemetry sleep study 2 (EMPA vs ZOL)
# Format: in vivo, rat
# Conditions: for REM:NR ratio: 6 h after dosing
# Description: All rodent electroencephalograph (EEG) studies were performed at SRI International. Three groups of eight male Sprague-Dawley rats (300±25 g; Charles River, Wilmington, MA) were implanted with chronic recording devices (F40-EET, Data Sciences Inc., St Paul, MN) for continuous recordings of EEG, electromyograph (EMG), core body temperature (Tcore), and LMA via telemetry as previously described. Data recording and scoring were performed as previously reported (see also Supplemental Material and Methods). The EEG and EMG data were scored in 10 sec epochs for waking (W), rapid eye movement sleep (REM), and non-REM sleep (NR). Tcore and LMA (counts per minute) were analyzed as hourly means. Data from the EEG studies are reported in hourly means such that the hourly time ZT1 refers to the hour between time points ZT0 and ZT1.
# For each of the three separate studies, a repeated measures counter-balanced design was employed in which each rat received five separate dosings. […] All dosings were administered ip in a volume of 2 ml/kg. A minimum of 3 d elapsed between doses. Dosing occurred during the middle of the rats’ normal active period at the start of ZT19 and was typically completed within 10 min. Animals were continuously recorded for 6 h prior to dosing and for 18 h following dosing.
smiles,measurement,setting,value
"CCN(Cc1cccnc1)C(=O)CN(c1ccc(OC)nc1)S(=O)(=O)c1ccccc1C [EMPA, N-(Ethyl-2-[(6-methoxy-pyridin-3-yl)-(toluene-2-sulfonyl)-amino]-N-pyridin-3-ylmethyl-acetamide)]",LMA (in words),"100 mg/kg ip, across 6 h, vs vehicle",LMA was decreased
same,cumulative NR (in words),"100 mg/kg ip, first 4 and 6 h periods",increased cumulative NR
same,NR bout duration,"6 h Average, 30 mg/kg ip",1.43 ±0.14
same,REM bout duration,"6 h Average, 30 mg/kg ip",0.88 ± 0.09
same,W bout duration,"6 h Average, 30 mg/kg ip",5.35 ±0.77
same,NR bout duration,"6 h Average, 100 mg/kg ip",1.28 ± 0.12^+
same,REM bout duration,"6 h Average, 100 mg/kg ip",0.96 ± 0.09
same,W bout duration,"6 h Average, 100 mg/kg ip",3.54 ± 0.20
same,NR bout duration,"6 h Average, EMPA 10 mg/kg ip",1.34 ± 0.17
same,REM bout duration,"6 h Average, EMPA 10 mg/kg ip",0.79 ± 0.09
same,W bout duration,"6 h Average, EMPA 10 mg/kg ip",5.56 ± 0.52
same,Number of NR bouts,"6 h Total, 30 mg/kg ip",68.80 ± 7.18
same,Number of REM bouts,"6 h Total, 30 mg/kg ip",22.10 ± 3.30^+
same,Number of W bouts,"6 h Total, 30 mg/kg ip",51.30 ± 4.95
same,Number of NR bouts,"6 h Total, 100 mg/kg ip",84.80 ± 5.06
same,Number of REM bouts,"6 h Total, 100 mg/kg ip",20.00 ± 1.93^+
same,Number of W bouts,"6 h Total, 100 mg/kg ip",65.10 ± 3.37
same,Number of NR bouts,"6 h Total, EMPA 10 mg/kg ip",68.80 ±6.22
same,Number of REM bouts,"6 h Total, EMPA 10 mg/kg ip",18.10 ± 2.28^+
same,Number of W bouts,"6 h Total, EMPA 10 mg/kg ip",50.20 ±5.70
same,REM:NR ratio,10 mg/kg ip (EMPA),0.16±0.019^+
same,REM:NR ratio,30 mg/kg ip,0.21±0.032^+
same,REM:NR ratio,100 mg/kg ip,0.18±0.027^+
same,NR bout duration,"ZT19, 30 mg/kg ip",1.27± 0.15^+
same,Number of NR bouts,"ZT19, 30 mg/kg ip",9.90 ± 1.60
same,Number of REM bouts,"ZT19, 30 mg/kg ip",1.20± 0.49
same,Number of W bouts,"ZT19, 30 mg/kg ip",6.20± 0.98
same,REM bout duration,"ZT19, 30 mg/kg ip",0.62± 0.22
same,W bout duration,"ZT19, 30 mg/kg ip",11.89± 5.40
same,NR bout duration,"ZT19, 100 mg/kg ip",1.11± 0.19^+
same,Number of NR bouts,"ZT19, 100 mg/kg ip",10.80± 2.39
same,Number of REM bouts,"ZT19, 100 mg/kg ip",0.90± 0.46
same,Number of W bouts,"ZT19, 100 mg/kg ip",9.80± 2.48
same,REM bout duration,"ZT19, 100 mg/kg ip",0.86± 0.19
same,W bout duration,"ZT19, 100 mg/kg ip",13.14± 5.99
same,NR bout duration,"ZT19, EMPA 10 mg/kg ip",1.60± 0.25^+
same,Number of NR bouts,"ZT19, EMPA 10 mg/kg ip",7.40 ± 2.00
same,Number of REM bouts,"ZT19, EMPA 10 mg/kg ip",1.60± 0.67
same,Number of W bouts,"ZT19, EMPA 10 mg/kg ip",4.60± 1.25
same,REM bout duration,"ZT19, EMPA 10 mg/kg ip",0.64± 0.15
same,W bout duration,"ZT19, EMPA 10 mg/kg ip",16.42± 5.00
same,NR bout duration,"ZT20, 30 mg/kg ip",1.50± 0.28^+
same,Number of NR bouts,"ZT20, 30 mg/kg ip",12.50± 2.18
same,Number of REM bouts,"ZT20, 30 mg/kg ip",4.40± 0.96^+
same,Number of W bouts,"ZT20, 30 mg/kg ip",8.30± 1.27
same,REM bout duration,"ZT20, 30 mg/kg ip",0.87± 0.13
same,W bout duration,"ZT20, 30 mg/kg ip",9.83± 5.62
same,NR bout duration,"ZT20, 100 mg/kg ip",1.86± 0.28^+
same,Number of NR bouts,"ZT20, 100 mg/kg ip",16.50± 2.03
same,Number of REM bouts,"ZT20, 100 mg/kg ip",5.00± 1.12^+
same,Number of W bouts,"ZT20, 100 mg/kg ip",11.60± 1.11
same,REM bout duration,"ZT20, 100 mg/kg ip",0.88± 0.08
same,W bout duration,"ZT20, 100 mg/kg ip",2.46± 0.62
same,NR bout duration,"ZT20, EMPA 10 mg/kg ip",1.15± 0.15^+
same,Number of NR bouts,"ZT20, EMPA 10 mg/kg ip",14.00±2.52
same,Number of REM bouts,"ZT20, EMPA 10 mg/kg ip",4.10± 1.11
same,Number of W bouts,"ZT20, EMPA 10 mg/kg ip",10.70± 1.85
same,REM bout duration,"ZT20, EMPA 10 mg/kg ip",0.90± 0.18
same,W bout duration,"ZT20, EMPA 10 mg/kg ip",9.37± 5.67
same,NR bout duration,"ZT21, 30 mg/kg ip",1.52± 0.21
same,Number of NR bouts,"ZT21, 30 mg/kg ip",15.90± 2.21
same,Number of REM bouts,"ZT21, 30 mg/kg ip",5.80± 1.35
same,Number of W bouts,"ZT21, 30 mg/kg ip",11.70± 1.55
same,REM bout duration,"ZT21, 30 mg/kg ip",1.01 ± 0.11
same,W bout duration,"ZT21, 30 mg/kg ip",3.04± 0.83
same,NR bout duration,"ZT21, 100 mg/kg ip",1.17± 0.11
same,Number of NR bouts,"ZT21, 100 mg/kg ip",17.00± 2.91
same,Number of REM bouts,"ZT21, 100 mg/kg ip",4.10± 1.08
same,Number of W bouts,"ZT21, 100 mg/kg ip",12.40± 2.01
same,REM bout duration,"ZT21, 100 mg/kg ip",1.18 ± 0.14^+
same,W bout duration,"ZT21, 100 mg/kg ip",8.88± 5.82
same,NR bout duration,"ZT21, EMPA 10 mg/kg ip",1.12± 0.17
same,Number of NR bouts,"ZT21, EMPA 10 mg/kg ip",13.50± 2.15
same,Number of REM bouts,"ZT21, EMPA 10 mg/kg ip",3.40± 0.73
same,Number of W bouts,"ZT21, EMPA 10 mg/kg ip",10.20± 1.61
same,REM bout duration,"ZT21, EMPA 10 mg/kg ip",0.69 ± 0.11
same,W bout duration,"ZT21, EMPA 10 mg/kg ip",6.55± 2.67
same,NR bout duration,"ZT22, 30 mg/kg ip",1.38± 0.15
same,Number of NR bouts,"ZT22, 30 mg/kg ip",12.20± 1.65
same,Number of REM bouts,"ZT22, 30 mg/kg ip",5.30± 1.09
same,Number of W bouts,"ZT22, 30 mg/kg ip",9.20± 1.32
same,REM bout duration,"ZT22, 30 mg/kg ip",0.83± 0.13
same,W bout duration,"ZT22, 30 mg/kg ip",4.90± 1.31
same,NR bout duration,"ZT22, 100 mg/kg ip",1.32± 0.31
same,Number of NR bouts,"ZT22, 100 mg/kg ip",18.40± 2.70
same,Number of REM bouts,"ZT22, 100 mg/kg ip",4.80± 0.98
same,Number of W bouts,"ZT22, 100 mg/kg ip",13.20± 1.76
same,REM bout duration,"ZT22, 100 mg/kg ip",0.84± 0.17
same,W bout duration,"ZT22, 100 mg/kg ip",2.84± 0.49
same,NR bout duration,"ZT22, EMPA 10 mg/kg ip",1.33± 0.24
same,Number of NR bouts,"ZT22, EMPA 10 mg/kg ip",12.70± 1.87
same,Number of REM bouts,"ZT22, EMPA 10 mg/kg ip",3.30± 0.58
same,Number of W bouts,"ZT22, EMPA 10 mg/kg ip",8.20± 1.73
same,REM bout duration,"ZT22, EMPA 10 mg/kg ip",0.84± 0.16
same,W bout duration,"ZT22, EMPA 10 mg/kg ip",7.34± 2.67
same,NR bout duration,"ZT23, 30 mg/kg ip",0.90± 0.11^+
same,Number of NR bouts,"ZT23, 30 mg/kg ip",10.80± 2.35
same,Number of REM bouts,"ZT23, 30 mg/kg ip",3.40± 1.24
same,Number of W bouts,"ZT23, 30 mg/kg ip",8.00± 1.56
same,REM bout duration,"ZT23, 30 mg/kg ip",0.75± 0.21
same,W bout duration,"ZT23, 30 mg/kg ip",11.46± 5.56
same,NR bout duration,"ZT23, 100 mg/kg ip",1.10± 0.20
same,Number of NR bouts,"ZT23, 100 mg/kg ip",12.30± 1.25
same,Number of REM bouts,"ZT23, 100 mg/kg ip",3.20± 0.63
same,Number of W bouts,"ZT23, 100 mg/kg ip",8.60± 1.01
same,REM bout duration,"ZT23, 100 mg/kg ip",0.96± 0.19
same,W bout duration,"ZT23, 100 mg/kg ip",4.89 ±0.81
same,NR bout duration,"ZT23, EMPA 10 mg/kg ip",1.39± 0.18
same,Number of NR bouts,"ZT23, EMPA 10 mg/kg ip",11.00± 1.40
same,Number of REM bouts,"ZT23, EMPA 10 mg/kg ip",3.40± 0.65
same,Number of W bouts,"ZT23, EMPA 10 mg/kg ip",7.90± 1.27
same,REM bout duration,"ZT23, EMPA 10 mg/kg ip",0.85± 0.09
same,W bout duration,"ZT23, EMPA 10 mg/kg ip",6.10± 1.02
same,NR bout duration,"ZT24, 30 mg/kg ip",1.45± 0.49
same,Number of NR bouts,"ZT24, 30 mg/kg ip",7.50± 1.61
same,Number of REM bouts,"ZT24, 30 mg/kg ip",2.00± 0.94
same,Number of W bouts,"ZT24, 30 mg/kg ip",7.10± 1.63
same,REM bout duration,"ZT24, 30 mg/kg ip",0.69± 0.13
same,W bout duration,"ZT24, 30 mg/kg ip",16.83± 7.31
same,NR bout duration,"ZT24, 100 mg/kg ip",1.04± 0.17
same,Number of NR bouts,"ZT24, 100 mg/kg ip",9.40± 2.24
same,Number of REM bouts,"ZT24, 100 mg/kg ip",2.00± 1.01
same,Number of W bouts,"ZT24, 100 mg/kg ip",8.40± 1.92
same,REM bout duration,"ZT24, 100 mg/kg ip",0.49± 0.09
same,W bout duration,"ZT24, 100 mg/kg ip",14.62± 6.09
same,NR bout duration,"ZT24, EMPA 10 mg/kg ip",1.25± 0.18^+
same,Number of NR bouts,"ZT24, EMPA 10 mg/kg ip",10.00± 2.22
same,Number of REM bouts,"ZT24, EMPA 10 mg/kg ip",2.30± 0.98
same,Number of W bouts,"ZT24, EMPA 10 mg/kg ip",7.80± 1.76
same,REM bout duration,"ZT24, EMPA 10 mg/kg ip",0.54± 0.10
same,W bout duration,"ZT24, EMPA 10 mg/kg ip",9.17± 2.45
same,NR or REM latency (in words),administered in the mid-dark phase,no effect on either NR or REM latency
same,number of W bouts (in words),"all three concentrations (10, 30, 100 mg/kg ip)",increased the number of W bouts
same,Tcore (in words),"high concentration tested, across 6 h",decreased Tcore
same,NR during the subsequent light period (in words),light period,No significant effects on NR
